# According to patent US6825363B2, “Compounds useful in optical switching and manufacturing method thereof” (Fuji Xerox Co., Ltd., priority 2002, dated 2004):
# Columns and labels:
# Solubility in chloroform = type: physicochemical; details: organic solvent or mixture
# Procedure: (§1) For the absorption characteristic of such compounds, absorption spectra were measured by use of a near infrared photospectrometer to confirm that they could be utilized as materials for the optical switch operating at a wavelength of 1.3 μm. Further, for the thermal stability, the thermal decomposition temperature was measured by thermogravimetry and differential thermal analysis to confirm that they were thermally stable materials for the optical switch. Further, their solubility in organic solvents such as chloroform and acetone was confirmed.
# [1] = Thermal decomposition temperature by thermogravimetry and differential thermal analysis; type: physicochemical
# Procedure: as §1
Compound,solubility (Solubility in chloroform) [mg/mL],decomposition temperature (thermal stability) [1] [°C]
CC(C)CN(CC(C)C)c1cc(O)c2c(c1)OC(=O)/C2=C(/[O-])C1=C2C(O)=CC(=[N+](CC(C)C)CC(C)C)C=C2OC1=O [Compound (1)],54,202.7
CCN(CC)c1cc(O)c2c(c1)OC(=O)/C2=C(/[O-])C1=C2C(O)=CC(=[N+](CC)CC)C=C2OC1=O [Compound (2)],3,≥ 200
